Data: patent US20090148424A1, “Reversibly immortalized mammalian liver cells and use thereof” (priority 2004, published 2009)

Assays:
CYNK-1 cell = assay: Ganciclovir sensitivity of CYNK-1 cell (MTT assay); format: cell-based, human; conditions: one-week cultivation with 5 μM of GCV
Text: (§1) Two hundred CYNK-1 cells (deposited with International Patent Organism Depository, National Institute of Advanced Industrial Science and Technology, address: AIST Tsukuba Central 6, 1-1, Higashi 1-Chome, Tsukuba-shi, Ibaraki-ken, 305-8566 Japan, deposited date: Mar. 10, 2004, accession number: FERM BP-08657) were inoculated in a 96-well plate, cultured in CS-C serum free culture medium alone or CS-C serum free culture media containing various concentrations of ganciclovir (5, 10, 20, 50 or 100 μM) and then cell proliferation was investigated by MTT assay (see Mcsmann T. J., Immunol. Methods, 65, 55, 1983).
Cell viability is shown in FIG. 7 as relative sensitivity. Ganciclovir sensitivity of the CYNK-1 cell (deposited with International Patent Organism Depository, National Institute of Advanced Industrial Science and Technology, address: AIST Tsukuba Central 6, 1-1, Higashi 1-Chome Tsukuba-shi, Ibaraki-ken, 305-8566 Japan, deposited date: Mar. 10, 2004, accession number: FERM BP-08657) depends on the concentration of ganciclovir.

reverted CYNK-1 cells = assay: Ganciclovir sensitivity of reverted CYNK-1 cells; format: cell-based, human
Text: as §1, with “[…].,” for “Mcsmann T. J.,”, “1983). […] All of the cells died within 10 days.” for “1983).”

## Nc1nc(O)c2ncn(COC(CO)CO)c2n1 [GCV, ganciclovir]
CYNK-1 cell
  effect on cell proliferation / viability: stopped cell proliferation and some of the cells died
Reverted CYNK-1 cells; 5 μM of GCV
  time until all of the cells died: ≤ 10 days
Reverted CYNK-1 cells; one-week cultivation in the presence of 5 μM of GCV
  effect on cell proliferation / viability: stopped cell proliferation and some of the cells died
